Results published in patent US20210040073A1, “AZABICYCLO-SUBSTITUTED TRIAZOLE DERIVATIVE, PREPARATION METHOD THEREOF, AND APPLICATION OF SAME IN MEDICINE” (Jiangsu Hengrui Medicine Co., Ltd., priority 2016, published 2021).

Experiments:
[1] = molecular target: T1, human V1bR (Homo sapiens, UniProt P47901); assay: Inhibition activity on human V1bR (Fluo-4 calcium assay, HEK293/human V1bR pool cells, vasopressin 3 nM); assay type: cell-based; conditions: calcium signal
T1 construct: expressed in transfected cells; host or cells: HEK293 (G418-selected pool)
T1 sequence (P47901 1-424): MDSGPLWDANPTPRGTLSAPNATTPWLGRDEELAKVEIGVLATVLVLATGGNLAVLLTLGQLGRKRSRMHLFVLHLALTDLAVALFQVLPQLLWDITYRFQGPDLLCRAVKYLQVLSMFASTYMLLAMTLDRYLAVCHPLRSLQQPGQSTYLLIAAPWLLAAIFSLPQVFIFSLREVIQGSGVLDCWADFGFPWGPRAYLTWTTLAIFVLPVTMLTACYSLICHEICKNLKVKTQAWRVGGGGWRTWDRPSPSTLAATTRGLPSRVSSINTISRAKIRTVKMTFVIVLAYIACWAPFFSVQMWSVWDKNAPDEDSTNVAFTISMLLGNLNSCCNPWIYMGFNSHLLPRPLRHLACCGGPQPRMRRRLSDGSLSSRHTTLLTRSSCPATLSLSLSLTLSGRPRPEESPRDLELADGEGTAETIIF
Experimental: The inhibition effect of the compounds of the present invention on the activity of human V1bR protein expressed in HEK293/human V1bR cells was determined by the following experimental method:
The pcDNA3.1-V1bR plasmid was transferred into HEK293 cells with the Lipofectamine® 3000 transfection reagent; G418 was added on the next day, and the HEK293/human V1bR pool cell lines were obtained.
(§1) HEK293/human V1bR pool cells were inoculated in a 96-well plate with an inoculation density of 25,000 cells/well one day in advance. On the next day, a loading buffer containing Fluo-4 dye was formulated using the reagents in the Fluo-4 NW calcium assay kit, and the culture medium was then removed; 100 μl of the loading buffer containing Fluo-4 dye were added to each well, and the plate was incubated at 37° C. for 30 minutes. After that, the plate was moved to room temperature and equilibrated for 10 minutes. The compounds were formulated into concentration gradients of 10^6, 10^5, 10^4, 10^3, 10^2 and 10^1 nM. 1 μl of the compounds in each concentration was added to each well, and the plate was incubated at room temperature for 10 minutes. […] IC50 values of the compounds were calculated by Graphpad prism software using fluorescence signals corresponding to different concentrations.

[2] = molecular target: T2, human V1aR (Homo sapiens, UniProt P37288); assay: Inhibition activity on human V1aR (Fluo-4 calcium assay, HEK293/human V1aR stably transfected cells, vasopressin 3 nM); assay type: cell-based; conditions: calcium signal
T2 construct: expressed in transfected cells
Experimental: The inhibition effect of the compounds of the present invention on the activity of human V1aR protein expressed in HEK293/human V1aR stably transfected cells was determined by the following experimental method:
The pcDNA3.1-V1aR plasmid was transferred into HEK293 cells with the Lipofectamine® 3000 transfection reagent; G418 was added on the next day to screen, and monoclonal cell lines were selected.
as §1, with “V1aR stably transfected” for “V1bR pool”
The inhibition activity of the compounds of the present invention on human V1aR was determined by the above test, and the obtained IC50 values are shown in Table 2.

[3] = Pharmacokinetics assay in rats after intragastrical administration; conditions: 2 mg/kg; for AUC / CL/F / MRT / Vd/F: plasma
Experimental: Rats were used as test animals. […] The pharmacokinetic behavior of the compounds of the present invention was studied and evaluated in rats.
After an overnight fast, SD rats were administered intragastrically the test compounds at an administration dosage of 2.0 mg/kg and an administration volume of 10.0 mL/kg.
0.2 mL of blood was taken from the orbital sinus before administration and at 0.5, 1.0, 2.0, 4.0, 6.0, 8.0, 11.0 and 24.0 hours after administration. The samples were stored in heparinized tubes, and centrifuged for 10 minutes at 4° C. at 3,500 rpm to separate the blood plasma. The plasma samples were stored at −20° C. The rats were fed 2 hours after administration.
The content of the test compounds in the plasma of rats after intragastrical administration of the test compounds at different concentrations was determined: 25 μL of rat plasma at each time after administration was taken, added with 50 μL of the internal standard solution of camptothecin (100 ng/mL) and 200 μL of acetonitrile, vortex-mixed for 5 minutes, and centrifuged for 10 minutes (4000 rpm). 1.0 μL of the supernatant was taken from the plasma samples for LC/MS/MS analysis.

[4] = both, Sprague-Dawley, rat, in vivo, po

T2 sequence (P37288 whole entry): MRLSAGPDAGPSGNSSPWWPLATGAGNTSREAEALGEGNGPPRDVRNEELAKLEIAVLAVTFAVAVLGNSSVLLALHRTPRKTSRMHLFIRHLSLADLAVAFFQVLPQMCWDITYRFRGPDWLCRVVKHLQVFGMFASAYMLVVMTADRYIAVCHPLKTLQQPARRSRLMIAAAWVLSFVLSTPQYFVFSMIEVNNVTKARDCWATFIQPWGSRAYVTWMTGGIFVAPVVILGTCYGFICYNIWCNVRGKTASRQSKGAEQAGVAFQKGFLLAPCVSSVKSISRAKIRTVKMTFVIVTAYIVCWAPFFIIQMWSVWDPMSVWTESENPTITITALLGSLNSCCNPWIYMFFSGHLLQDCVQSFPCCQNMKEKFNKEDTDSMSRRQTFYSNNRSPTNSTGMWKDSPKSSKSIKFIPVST

IC50 [1] [µM]	IC50 [2] [µM]	SMILES	Plasma concentration Cmax ([3]; SD rats, intragastrical) [ng/mL]	half-life [3, 4] [h]	AUC ([3]; both, Sprague-Dawley, rat, po) [ng·h/mL]	CL/F ([3]; both, Sprague-Dawley, rat, po) [mL/min/kg]	MRT ([3]; both, Sprague-Dawley, rat, po) [h]	Vd/F ([3]; both, Sprague-Dawley, rat, po) [L/kg]	Half-life T½ ([3]; SD rats, intragastrical) [h]	Cmax [3, 4] [ng/mL]
59.4	3.8	COCc1nnc(N2C[C@@H]3C[C@]3(c3cccc(F)c3Cl)C2)n1-c1ccc(OC)nc1 [Example 4, (1S,5R)-1-(2-Chloro-3-fluorophenyl)-3-(5-(methoxymethyl)-4-(6-methoxypyridin-3-yl)-4H-1,2,4-triazol-3-yl)-3-azabicyclo[3.1.0]hexane]								
11.7	3.6	COc1ccc(-n2c(N3C[C@@H]4C[C@]4(c4ccc(F)cc4Cl)C3)nnc2C(F)(F)F)cn1 [Example 12, (1S,5R)-1-(2-Chloro-4-fluorophenyl)-3-(4-(6-methoxypyridin-3-yl)-5-(trifluoromethyl)-4H-1,2,4-triazol-3-yl)-3-azabicyclo[3.1.0]hexane]								
24.5	1	COc1ccc(-n2c(COCCF)nnc2N2C[C@@H]3C[C@]3(c3ccc(F)cc3Cl)C2)cn1 [Example 1, (1S,5R)-1-(2-Chloro-4-fluorophenyl)-3-(5-((2-fluoroethoxy)methyl)-4-(6-methoxypyridin-3-yl)-4H-1,2,4-triazol-3-yl)-3-azabicyclo[3.1.0]hexane]								

SMILES	IC50 [1] [µM]	IC50 [2] [µM]	Plasma concentration Cmax ([3]; SD rats, intragastrical) [ng/mL]	half-life [3, 4] [h]	AUC ([3]; both, Sprague-Dawley, rat, po) [ng·h/mL]	CL/F ([3]; both, Sprague-Dawley, rat, po) [mL/min/kg]	MRT ([3]; both, Sprague-Dawley, rat, po) [h]	Vd/F ([3]; both, Sprague-Dawley, rat, po) [L/kg]	Half-life T½ ([3]; SD rats, intragastrical) [h]	Cmax [3, 4] [ng/mL]
CCOCc1nnc(N2C[C@@H]3C[C@]3(c3ccc(F)cc3Cl)C2)n1-c1ccc(OC)nc1 [Example 6, (1S,5R)-1-(2-Chloro-4-fluorophenyl)-3-(5-(ethoxymethyl)-4-(6-methoxypyridin-3-yl)-4H-1,2,4-triazol-3-yl)-3-azabicyclo[3.1.0]hexane]	27.9	1.7	135 ± 80.0	3.47 ± 1.72	1060 ± 982	68.9 ± 58.8	6.7 ± 0.73	18 ± 17.4		
COCc1nnc(N2C[C@@H]3C[C@]3(c3ccc(F)cc3Cl)C2)n1-c1ccc(OC)nc1 [Example 9, (1S,5R)-1-(2-Chloro-4-fluorophenyl)-3-(5-(methoxymethyl)-4-(6-methoxypyridin-3-yl)-4H-1,2,4-triazol-3-yl)-3-azabicyclo[3.1.0]hexane]	37.6	2.9			2040 ± 1020	20.2 ± 10.3	6.23 ± 4.94	6 ± 4.44	3.98 ± 3.55	350 ± 142
